The term IC50 denotes the concentration needed to halve the response being measured.

Counter-ions that a name gives are not always drawn.

These results are taken from patent publication US8673894B2 (Hoffmann-La Roche Inc., priority 2010, dated 2014).

Assay [1] has as its target T1, endogenous cellular BACE2 (Rattus norvegicus, UniProt Q6IE75).
T1 construct: endogenous cellular BACE2 in the Ins1e rat cell line; endogenous in cells; host or cells: INS-TMEM27 (INS1e-derived rat insulinoma cell line with doxycycline-inducible full-length human TMEM27)
T1 sequence (Q6IE75 63-514): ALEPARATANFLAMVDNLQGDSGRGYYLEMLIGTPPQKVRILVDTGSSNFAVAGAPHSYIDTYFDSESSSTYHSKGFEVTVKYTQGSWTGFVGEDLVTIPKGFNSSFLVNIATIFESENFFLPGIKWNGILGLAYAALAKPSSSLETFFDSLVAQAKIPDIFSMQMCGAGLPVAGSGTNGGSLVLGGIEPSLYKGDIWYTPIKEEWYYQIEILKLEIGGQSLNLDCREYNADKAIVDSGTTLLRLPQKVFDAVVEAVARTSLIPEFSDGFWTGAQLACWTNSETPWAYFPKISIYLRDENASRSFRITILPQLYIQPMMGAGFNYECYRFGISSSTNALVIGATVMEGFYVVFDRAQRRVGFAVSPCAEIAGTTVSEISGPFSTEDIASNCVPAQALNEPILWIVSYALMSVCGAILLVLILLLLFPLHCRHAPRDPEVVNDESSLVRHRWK
In words: Assay for BACE inhibition by measuring cellular TMEM27 cleavage. It is filed as cell-based. The conditions noted are these: INS-TMEM27 (INS1e-derived) cells, shed human TMEM27 in supernatant by ELISA. Put shortly: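 INS1e rat cells with doxycycline-inducible human TMEM27 get inhibitor 2 h before doxycycline (500 ng/ml final), then 46 h further at 37° C. Shed TMEM27 in the supernatant is measured by sandwich ELISA, and the EC50 comes from a curve fit of the ELISA signal.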
(In general: In an ELISA, binding on a coated surface is turned into a signal by an enzyme label.)

The subject of the next assay is Aβ40. Put plainly: Cellular Aβ-lowering assay. The conditions noted are these: HEK293 cells stably expressing human APP695, Aβ40 in supernatant by ELISA after 18-20 hrs; read-out: Cellular assay Abeta40 IC50. It is filed as cell-based. Put shortly:
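HEK293 cells stably expressing human wild-type APP695 were treated with compound for 18-20 h at 37 °C in 0.8% v/v DMSO. Secreted Aβ40 in the supernatant was measured by sandwich ELISA (Aβ40 C-terminus-specific capture, HRP-4G8 detection, TMB read at 450 nm) and quantified against a pure Aβ peptide standard curve.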

As to `CC1(C)C[C@@](C)(c2cc(NC(=O)C3CC3(F)F)ccc2F)N=C(N)CO1` (stereo partly drawn) [Example 19, 2,2-Difluoro-cyclopropanecarboxylic acid [3-((S)-3-amino-5,7,7-trimethyl-2,5,6,7-tetrahydro-[1,4]oxazepin-5-yl)-4-fluoro-phenyl]-amide], the IC50 in assay [1] worked out at 56 nM; in the assay with Aβ40, 440 nM.

Take `C[C@]1(c2cc(NC3CCCC3)ccc2F)N=C(N)COCC1(F)F` [Example 64, (R)-5-(5-(cyclopentylamino)-2-fluorophenyl)-6,6-difluoro-5-methyl-2,5,6,7-tetrahydro-1,4-oxazepin-3-amine]: the IC50 in assay [1] worked out at 400 nM; in the assay with Aβ40, 360 nM.

For the compound `C[C@@]1(c2cc(NC(=O)c3ncc(C(F)(F)F)cc3Cl)ccc2F)CCOCC(N)=N1` [Example 16, 3-Chloro-5-trifluoromethyl-pyridine-2-carboxylic acid [3-((S)-3-amino-5-methyl-2,5,6,7-tetrahydro-[1,4]oxazepin-5-yl)-4-fluoro-phenyl]-amide], the IC50 in assay [1] is 13.5 nM; in the assay with Aβ40, 14 nM.

For `C[C@]1(c2cc(NC(=O)c3ncc(C#N)cc3Cl)ccc2F)N=C(N)COCC1(F)F` [Example 56, (R)-N-(3-(3-amino-6,6-difluoro-5-methyl-2,5,6,7-tetrahydro-1,4-oxazepin-5-yl)-4-fluorophenyl)-3-chloro-5-cyanopicolinamide formate], the half-inhibitory concentration (IC50) is 15.6 nM in assay [1] and 1.5 nM in the assay on Aβ40.

For `COC(C)C(=O)Nc1ccc(F)c([C@@]2(C)N=C(N)COCC2(F)F)c1` (stereo partly drawn) [Example 55, N-(3-((R)-3-amino-6,6-difluoro-5-methyl-2,5,6,7-tetrahydro-1,4-oxazepin-5-yl)-4-fluorophenyl)-2-methoxypropanamide formate], the concentration for half-maximal inhibition (IC50) amounted to 190 nM in assay [1] and 140 nM with Aβ40.

With `C[C@]1(c2cc(NC(=O)c3ncc(F)cc3F)ccc2F)N=C(N)COCC1(F)F` [Example 32, (R)-N-(3-(3-amino-6,6-difluoro-5-methyl-2,5,6,7-tetrahydro-1,4-oxazepin-5-yl)-4-fluorophenyl)-3,5-difluoropicolinamide formate], the IC50 worked out at 4.4 nM in assay [1] and 4.5 nM with Aβ40.

With `Cc1nc(C(=O)Nc2ccc(F)c([C@@]3(C)N=C(N)COCC3(F)F)c2)co1` [Example 42, (R)-N-(3-(3-amino-6,6-difluoro-5-methyl-2,5,6,7-tetrahydro-1,4-oxazepin-5-yl)-4-fluorophenyl)-2-methyloxazole-4-carboxamide formate], the IC50 in assay [1] was determined as 2.4 nM; with Aβ40, 7.4 nM.

With `C[C@]1(c2cc(NC(=O)C3CC3(F)F)ccc2F)N=C(N)COCC1(F)F` (stereo partly drawn) [Example 34, N-(3-((R)-3-amino-6,6-difluoro-5-methyl-2,5,6,7-tetrahydro-1,4-oxazepin-5-yl)-4-fluorophenyl)-2,2-difluorocyclopropanecarboxamide formate], the IC50 in assay [1] stood at 380 nM; in the assay with Aβ40 it was 76 nM.

Regarding `C[C@]1(c2cc(NC(=O)c3cc(Cl)c(Cl)s3)ccc2F)N=C(N)COCC1(F)F` [Example 72, (R)-N-(3-(3-Amino-6,6-difluoro-5-methyl-2,5,6,7-tetrahydro-1,4-oxazepin-5-yl)-4-fluorophenyl)-4,5-dichlorothiophene-2-carboxamide formate,], the figures for the IC50 (in assay [1]; in the assay on Aβ40) were 2440 nM and 590 nM, respectively.

Consider `C[C@]1(c2cc(NC(=O)c3ccc(C#N)cn3)ccc2F)N=C(N)COC[C@@H]1F` [Example 63, N-(3-((5R,6R)-3-amino-6-fluoro-5-methyl-2,5,6,7-tetrahydro-1,4-oxazepin-5-yl)-4-fluorophenyl)-5-cyanopicolinamide], for which the half-maximal inhibitory concentration (IC50) in assay [1] is 91 nM; in the assay on Aβ40 it was 0.3 nM.

As for `CC1(C)C[C@@](C)(c2cc(NC(=O)c3ccc(OC(F)F)cn3)ccc2F)N=C(N)CO1` [Example 11, 5-Difluoromethoxy-pyridine-2-carboxylic acid [3-((S)-3-amino-5,7,7-trimethyl-2,5,6,7-tetrahydro-[1,4]oxazepin-5-yl)-4-fluoro-phenyl]-amide], the half-inhibitory concentration (IC50) in assay [1] came to 2 nM; with Aβ40, 2.1 nM.

For `C[C@]1(c2cc(NC(=O)c3ncc(Cl)cn3)ccc2F)N=C(N)COCC1(F)F` [Example 46, 5-Chloro-pyrimidine-2-carboxylic acid [3-((R)-3-amino-6,6-difluoro-5-methyl-2,5,6,7-tetrahydro-[1,4]oxazepin-5-yl)-4-fluoro-phenyl]-amide], the values for the IC50 (in assay [1]; in the assay on Aβ40) were 6.5 nM and 1.7 nM, respectively.

For `Cc1c[nH]nc1C(=O)Nc1ccc(F)c([C@@]2(C)N=C(N)COCC2(F)F)c1` [Example 97, (R)-N-(3-(3-Amino-6,6-difluoro-5-methyl-2,5,6,7-tetrahydro-1,4-oxazepin-5-yl)-4-fluorophenyl)-4-methyl-1H-pyrazole-3-carboxamide], the results for the half-maximal inhibitory concentration (IC50) (in assay [1]; in the assay on Aβ40) were 444 nM and 220 nM, respectively.

For `C[C@@]1(c2cc(NC(=O)C3(C(F)(F)F)CCC3)ccc2F)CCOCC(N)=N1` [Example 24, 1-Trifluoromethyl-cyclobutanecarboxylic acid [3-((S)-3-amino-5-methyl-2,5,6,7-tetrahydro-[1,4]oxazepin-5-yl)-4-fluoro-phenyl]-amide], the IC50 turned out to be 28 nM in assay [1] and 5870 nM with Aβ40.

As for `CC[C@]1(c2cc(NC(=O)c3n[nH]cc3C)ccc2F)N=C(N)COCC1(F)F` [Example 92, (R)-N-(3-(3-Amino-5-ethyl-6,6-difluoro-2,5,6,7-tetrahydro-1,4-oxazepin-5-yl)-4-fluorophenyl)-4-methyl-1H-pyrazole-3-carboxamide], the IC50 worked out at 731 nM in assay [1] and 2800 nM in the assay with Aβ40.

On to `NC1=N[C@@]2(c3cccc(NC(=O)c4ccc(OCC(F)(F)F)cn4)c3)C[C@H]2COC1` (racemic) [Example 4, 5-(2,2,2-Trifluoro-ethoxy)-pyridine-2-carboxylic acid [3-((1SR,7RS)-3-amino-5-oxa-2-aza-bicyclo[5.1.0]oct-2-en-1-yl)-phenyl]-amide], for which the results for the IC50 (in assay [1]; with Aβ40) were 8900 nM and 630 nM, respectively.

Consider `C[C@]1(c2cc(NC(=O)c3nn(C(F)F)cc3Cl)ccc2F)N=C(N)COCC1(F)F` [Example 114, (R)-N-(3-(3-Amino-6,6-difluoro-5-methyl-2,5,6,7-tetrahydro-1,4-oxazepin-5-yl)-4-fluorophenyl)-4-chloro-1-(difluoromethyl)-1H-pyrazole-3-carboxamide], for which the half-inhibitory concentration (IC50) is 9.68 nM in assay [1] and 4.9 nM with Aβ40.

As to `C[C@]1(c2cc(NC(=O)c3ccc(Cl)cn3)ccc2F)N=C(N)COC[C@@H]1F` [Example 61, N-(3-((5R,6R)-3-amino-6-fluoro-5-methyl-2,5,6,7-tetrahydro-1,4-oxazepin-5-yl)-4-fluorophenyl)-5-chloropicolinamide], the IC50 in assay [1] worked out at 1 nM; in the assay with Aβ40, 0.2 nM.

`C[C@]1(c2cc(NC(=O)c3ncc(C(F)(F)F)cc3Cl)ccc2F)N=C(N)COCC1(F)F` [Example 25, 3-Chloro-5-trifluoromethyl-pyridine-2-carboxylic acid [3-((R)-3-amino-6,6-difluoro-5-methyl-2,5,6,7-tetrahydro-[1,4]oxazepin-5-yl)-4-fluoro-phenyl]-amide]: the half-maximal inhibitory concentration (IC50) in assay [1] stood at 51 nM; with Aβ40, 7 nM.

Consider `CC1(C)OCC(N)=N[C@](C)(c2cc(NC(=O)c3ccc(Cl)cn3)c(F)cc2F)C1(F)F` [Example 118, (R)-N-(5-(3-amino-6,6-difluoro-5,7,7-trimethyl-2,5,6,7-tetrahydro-1,4-oxazepin-5-yl)-2,4difluorophenyl)-5-chloropicolinamide], for which the IC50 in assay [1] stood at 14800 nM; with Aβ40 it was 340 nM.

For `CC1(C)C[C@@](C)(c2cc(NC(=O)c3ccc(Cl)cn3)ccc2F)N=C(N)CO1` [Example 10, 5-Chloro-pyridine-2-carboxylic acid [3-((S)-3-amino-5,7,7-trimethyl-2,5,6,7-tetrahydro-[1,4]oxazepin-5-yl)-4-fluoro-phenyl]-amide], the figures for the IC50 (in assay [1]; with Aβ40) were 1.6 nM and 1.1 nM, respectively.

Consider `C[C@]1(c2cc(NC(=O)c3ccc(OCC(F)(F)F)cn3)ccc2F)N=C(N)COCC1(F)F` [Example 49, (R)-N-(3-(3-amino-6,6-difluoro-5-methyl-2,5,6,7-tetrahydro-1,4-oxazepin-5-yl)-4-fluorophenyl)-5-(2,2,2-trifluoroethoxy)picolinamide formate], for which the figures for the IC50 (in assay [1]; in the assay with Aβ40) were 1110 nM and 22 nM, respectively.

On to `COc1ccc(C(=O)Nc2ccc(F)c([C@@]3(C)N=C(N)COCC3(F)F)c2)nc1` [Example 90, (R)-N-(3-(3-Amino-6,6-difluoro-5-methyl-2,5,6,7-tetrahydro-1,4-oxazepin-5-yl)-4-fluorophenyl)-5-methoxypicolinamide formate], for which the results for the IC50 (in assay [1]; in the assay with Aβ40) were 85.3 nM and 5 nM, respectively.
